Laboratory results published in patent US11304929B2, “Tosylacetate based compounds and derivatives thereof as PHGDH inhibitors” (priority 2017, dated 2022).
pIC50: −log10 of the molar value. Where two headings read alike, the source gives them in different places.

Molecular target: PHGDH (Homo sapiens (Human), UniProt O43175)
Assay: 3-Phosphoglycerate Dehydrogenase (PHGDH) Fluorescence Intensity Assay, run at two NAD/3-PG ratios: PHGDH_HIGH_NAD/3-PG (250 μM NAD/500 μM 3-PG) and PHGDH_500_NAD/3-PG (500 μM NAD/500 μM 3-PG)
Assay type: biochemical
[1] = 250 μM NAD/500 μM 3-PG, read-out: IC50 (PHGDH_HIGH_NAD/3-PG)
[2] = 500 μM NAD/500 μM 3-PG, read-out: IC50 (PHGDH_500_NAD/3-PG)

PHGDH, sequence (O43175 2-533 limits assumed): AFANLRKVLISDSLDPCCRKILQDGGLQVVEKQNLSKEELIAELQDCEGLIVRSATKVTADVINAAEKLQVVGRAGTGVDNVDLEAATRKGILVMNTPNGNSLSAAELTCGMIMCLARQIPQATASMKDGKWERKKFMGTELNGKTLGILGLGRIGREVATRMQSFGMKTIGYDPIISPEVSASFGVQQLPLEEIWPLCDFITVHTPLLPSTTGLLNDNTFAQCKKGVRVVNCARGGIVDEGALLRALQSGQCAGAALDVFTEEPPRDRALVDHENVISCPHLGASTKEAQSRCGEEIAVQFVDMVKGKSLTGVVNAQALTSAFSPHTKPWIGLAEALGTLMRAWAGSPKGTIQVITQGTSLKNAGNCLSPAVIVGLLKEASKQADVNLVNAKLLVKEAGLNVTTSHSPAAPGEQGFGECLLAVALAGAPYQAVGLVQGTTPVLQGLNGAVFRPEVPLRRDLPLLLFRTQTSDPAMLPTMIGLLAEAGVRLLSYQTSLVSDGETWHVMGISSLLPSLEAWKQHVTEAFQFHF

Cc1cc2c(cc(C(=O)N[C@H](CO)c3ccc([S@@+]([O-])CC(=O)O)cc3)n2C)c(Cl)c1Cl [Example 12-001, 2-[(S)-4-[(1S)-1-[(4,5-dichloro-1,6-dimethyl-1H-indol-2-yl)formamido]-2-hydroxyethyl]benzenesulfinyl]acetic acid]
pIC50 [1]: 8.15 | pIC50 [2]: 8.05

Cn1nc(-c2ccc(F)cc2)cc1C(=O)N[C@H](CO)c1ccc(S(=O)(=O)CC(=O)O)cc1 [Example 04-004, 2-{4-[(1S)-1-{[3-(4-fluorophenyl)-1-methyl-1H-pyrazol-5-yl]formamido}-2-hydroxyethyl]benzenesulfonyl}acetic acid]
pIC50 [1]: 6.76 | pIC50 [2]: 6.52

COCCC(C(=O)O)S(=O)(=O)c1ccc([C@@H](C)NC(=O)c2cc3c(Cl)cc(C)cc3n2C)cc1 (stereo partly drawn) [Example 07-010, 2-{4-[(1R)-1-[(4-chloro-1,6-dimethyl-1H-indol-2-yl)formamido]ethyl]benzenesulfonyl}-4-methoxybutanoic acid]
pIC50 [1]: 7.68

COC(=O)C(C)S(=O)(=O)c1ccc([C@@H](C)NC(=O)c2cc3cc(Cl)ccc3n2C)cc1 (stereo partly drawn) [Example 05-006, methyl 2-{4-[(1R)-1-[(5-chloro-1-methyl-1H-indol-2-yl)formamido]ethyl]benzenesulfonyl}propanoate]
pIC50 [1]: 5.52

Cc1cc(Cl)c2cc(C(=O)N[C@H](C)c3ccc(S(=O)(=O)C4(C(=O)O)CCCC4)cc3)n(C)c2c1 [Example 07-004, 1-{4-[(1R)-1-[(4-chloro-1,6-dimethyl-1H-indol-2-yl)formamido]ethyl]benzenesulfonyl}cyclopentane-1-carboxylic acid]
pIC50 [1]: 8.22

Cc1cc2c(cc(C(=O)N[C@H](CO)c3ccc([S@@+]([O-])CC(=O)O)cc3)n2C)c(F)c1F [Example 12-010, 2-[(S)-4-[(1S)-1-[(4,5-difluoro-1,6-dimethyl-1H-indol-2-yl)formamido]-2-hydroxyethyl]benzenesulfinyl]acetic acid]
pIC50 [2]: 8.00

COC(=O)C[S+]([O-])c1ccc([C@@H](CO)NC(=O)c2cc3c(Cl)cc(C)cc3n2C)cc1 (stereo partly drawn) [Example 11-005, methyl 2-{4-[(1S)-1-[(4-chloro-1,6-dimethyl-1H-indol-2-yl)formamido]-2-hydroxyethyl]benzenesulfinyl}acetate]
pIC50 [1]: 6.66

Cc1cc(Cl)c2cc(C(=O)N[C@H](C)c3ccc(S(=O)(=O)C(C)C(=O)O)cc3)n(C)c2c1 (stereo partly drawn) [Example 07-003, 2-{4-[(1R)-1-[(4-chloro-1,6-dimethyl-1H-indol-2-yl)formamido]ethyl]benzenesulfonyl}propanoic acid]
pIC50 [1]: 8.10

COCCOC(=O)CS(=O)(=O)c1ccc([C@@H](C)NC(=O)c2cc3cc(C(F)(F)F)ccc3n2C)cc1 [Example 09-008, 2-methoxyethyl 2-{4-[(1R)-1-{[1-methyl-5-(trifluoromethyl)-1H-indol-2-yl]formamido}ethyl]benzenesulfonyl}acetate]
pIC50 [1]: 5.46

C[C@@H](NC(=O)c1cc(-c2cccc3cc[nH]c23)nn1C)c1ccc(S(=O)(=O)CC(=O)O)cc1 [Example 04-003, 2-{4-[(1R)-1-{[3-(1H-indol-7-yl)-1-methyl-1H-pyrazol-5-yl]formamido}ethyl]benzenesulfonyl}acetic acid]
pIC50 [1]: 7.28 | pIC50 [2]: 7.06

Cc1cc(Cl)c2cc(C(=O)N[C@H](CO)c3ccc([S+]([O-])CC(=O)O)cc3)n(C)c2c1 (stereo partly drawn) [Example 12-007, 2-{4-[(1S)-1-[(4-chloro-1,6-dimethyl-1H-indol-2-yl)formamido]-2-hydroxyethyl]benzenesulfinyl}acetic acid]
pIC50 [1]: 8.10 | pIC50 [2]: 7.96

CC(C)OC(=O)C(C)S(=O)(=O)c1ccc([C@@H](CO)NC(=O)c2cc(-c3ccc(F)cc3)nn2C)cc1 (stereo partly drawn) [Example 06-007, propan-2-yl 2-{4-[(1S)-1-{[3-(4-fluorophenyl)-1-methyl-1H-pyrazol-5-yl]formamido}-2-hydroxyethyl]benzenesulfonyl}propanoate]
pIC50 [1]: 4.53

Cc1cc2c(cc(C(=O)N[C@H](CO)c3ccc(S(=O)(=O)CC(=O)OCCO)cc3)n2C)c(F)c1F [Example 09-041, 2-hydroxyethyl 2-{4-[(1S)-1-[(4,5-difluoro-1,6-dimethyl-1H-indol-2-yl)formamido]-2-hydroxyethyl]benzenesulfonyl}acetate]
pIC50 [2]: 6.81

COc1cc(-c2cc(C(=O)N[C@H](C)c3ccc(S(=O)(=O)CC(=O)OC(C)C)cc3)n(C)n2)ccc1Cl [Example 02-013, propan-2-yl 2-{4-[(1R)-1-{[3-(4-chloro-3-methoxyphenyl)-1-methyl-1H-pyrazol-5-yl]formamido}ethyl]benzenesulfonyl}acetate]
pIC50 [1]: 5.21

Cc1cc2c(cc(C(=O)N[C@H](CO)c3ccc(S(=O)(=O)CC(=O)O)cc3)n2C)c(Cl)c1F [Example 03-016, 2-{4-[(1S)-1-[(4-chloro-5-fluoro-1,6-dimethyl-1H-indol-2-yl)formamido]-2-hydroxyethyl]benzenesulfonyl}acetic acid]
pIC50 [1]: 8.30 | pIC50 [2]: 8.15

CN1CCN(c2cc(Cl)c3cc(C(=O)N[C@H](CO)c4ccc(S(=O)(=O)CC(=O)O)cc4)n(C)c3c2)CC1 [Example 03-017, 2-{4-[(1S)-1-{[4-chloro-1-methyl-6-(4-methylpiperazin-1-yl)-1H-indol-2-yl]formamido}-2-hydroxyethyl]benzenesulfonyl}acetic acid]
pIC50 [1]: 7.40 | pIC50 [2]: 6.84

Cc1cc2c(cc(C(=O)N[C@H](CO)c3ccc([S+]([O-])CC(=O)O)cc3)n2C)c(Cl)c1Cl (stereo partly drawn) [Example 12-003, 2-{4-[(1S)-1-[(4,5-dichloro-1,6-dimethyl-1H-indol-2-yl)formamido]-2-hydroxyethyl]benzenesulfinyl}acetic acid]
pIC50 [1]: 8.52 | pIC50 [2]: 8.30

Cc1cc2c(cc(C(=O)N[C@H](CO)c3ccc(S(=O)(=O)CC(=O)OCC(C)(C)CO)cc3)n2C)c(F)c1F [Example 09-042, 3-hydroxy-2,2-dimethylpropyl 2-{4-[(1S)-1-[(4,5-difluoro-1,6-dimethyl-1H-indol-2-yl)formamido]-2-hydroxyethyl]benzenesulfonyl}acetate]
pIC50 [2]: 6.29

Cc1cc2c(cc(C(=O)N[C@H](CO)c3ccc(S(=O)(=O)CC(=O)OC(C)C)cc3)n2C)c(Cl)c1F [Example 01-035, propan-2-yl 2-{4-[(1S)-1-[(4-chloro-5-fluoro-1,6-dimethyl-1H-indol-2-yl)formamido]-2-hydroxyethyl]benzenesulfonyl}acetate]
pIC50 [1]: 6.33

Cc1cc(Cl)c2cc(C(=O)NCc3ccc(S(=O)(=O)CC(=O)OC(C)C)cc3)n(C)c2c1 [Example 01-031, propan-2-yl 2-(4-{[(4-chloro-1,6-dimethyl-1H-indol-2-yl)formamido]methyl}benzenesulfonyl)acetate]
pIC50 [1]: < 4.70

Cc1cc(Cl)c2cc(C(=O)N[C@H](CO)c3ccc(S(=O)(=O)CC(=O)O)cc3)n(C)c2n1 [Example 03-013, 2-{4-[(1S)-1-({4-chloro-1,6-dimethyl-1H-pyrrolo[2,3-b]pyridin-2-yl}formamido)-2-hydroxyethyl]benzenesulfonyl}acetic acid]
pIC50 [1]: 7.46

Cc1cc2c(cc(C(=O)N[C@H](C)c3ccc(S(=O)(=O)CC(=O)O)cc3)n2C)c(Cl)c1F [Example 03-014, 2-{4-[(1R)-1-[(4-chloro-5-fluoro-1,6-dimethyl-1H-indol-2-yl)formamido]ethyl]benzenesulfonyl}acetic acid]
pIC50 [1]: 8.30 | pIC50 [2]: 8.15

CC(C)OC(=O)CS(=O)(=O)c1ccc([C@@H](CO)NC(=O)c2cc(-c3ccc(F)cc3)nn2C)cc1 [Example 02-017, propan-2-yl 2-{4-[(1S)-1-{[3-(4-fluorophenyl)-1-methyl-1H-pyrazol-5-yl]formamido}-2-hydroxyethyl]benzenesulfonyl}acetate]
pIC50 [1]: 5.11

Cc1cc(Cl)c2cc(C(=O)N[C@H](CO)c3ccc(S(=O)(=O)CC(=O)OCCCO)cc3)n(C)c2c1 [Example 09-033, 3-hydroxypropyl 2-{4-[(1S)-1-[(4-chloro-1,6-dimethyl-1H-indol-2-yl)formamido]-2-hydroxyethyl]benzenesulfonyl}acetate]
pIC50 [1]: 7.01

CC(C)OC(=O)CS(=O)(=O)c1ccc([C@@H](C)NC(=O)c2cc(-c3ccc(Cl)c(Cl)c3)nn2C)cc1 [Example 02-014, propan-2-yl 2-{4-[(1R)-1-{[3-(3,4-dichlorophenyl)-1-methyl-1H-pyrazol-5-yl]formamido}ethyl]benzenesulfonyl}acetate]
pIC50 [1]: 4.13

CC(C(=O)O)S(=O)(=O)c1ccc([C@@H](C)NC(=O)c2cc3cc(Cl)ccc3n2C)cc1 (stereo partly drawn) [Example 07-009, 2-{4-[(1R)-1-[(5-chloro-1-methyl-1H-indol-2-yl)formamido]ethyl]benzenesulfonyl}propanoic acid]
pIC50 [1]: 6.72

CCCCOC(=O)CS(=O)(=O)c1ccc([C@@H](C)NC(=O)c2cc3c(Cl)cc(C)cc3n2C)cc1 [Example 09-009, butyl 2-{4-[(1R)-1-[(4-chloro-1,6-dimethyl-1H-indol-2-yl)formamido]ethyl]benzenesulfonyl}acetate]
pIC50 [1]: 5.43

Cc1cc(Cl)c2cc(C(=O)N[C@H](C)c3ccc(S(=O)(=O)CC(=O)OCC(CO)CO)cc3)n(C)c2c1 [Example 09-027, 3-hydroxy-2-(hydroxymethyl)propyl 2-{4-[(1R)-1-[(4-chloro-1,6-dimethyl-1H-indol-2-yl)formamido]ethyl]benzenesulfonyl}acetate]
pIC50 [1]: 6.80

C[C@@H](NC(=O)c1cc(-c2ccc(F)cc2)nn1C)c1ccc(S(=O)(=O)CC(=O)O)cc1 [Example 04-002, 2-{4-[(1R)-1-{[3-(4-fluorophenyl)-1-methyl-1H-pyrazol-5-yl]formamido}ethyl]benzenesulfonyl}acetic acid]
pIC50 [1]: 7.12

Cc1cc(Cl)c2cc(C(=O)N[C@H](C)c3ccc(S(=O)(=O)CC(=O)OCc4ccncc4)cc3)n(C)c2c1 [Example 09-010, pyridin-4-ylmethyl 2-{4-[(1R)-1-[(4-chloro-1,6-dimethyl-1H-indol-2-yl)formamido]ethyl]benzenesulfonyl}acetate]
pIC50 [1]: 6.76
